Assay results from US20070173545A1, “Activation of hypoxia-inducible gene expression” (priority 2003, published 2007).
“Also recorded” adds a separate entry of the source.

Columns and labels:
HRE containing promoter [1] = test: HRE-luciferase reporter in U251 cells; assay type: cell-based, human; details: six hours, glucose free Krebs, pyruvate, OAA, Ethylpyruvate 2 mM, Lactacystin-beta lactone 20 mM
Source text: (§1) FIG. 18: 2-oxoacids activate HIF-mediated gene expression in human cell lines Effective gene expression by HIF not only involves HIF protein stabilization via inhibition of HPH enzymes but also HIF-1 binding to DNA, inhibition of FIH-1 activity, and gene transcription (see FIG. 1). (A) Glioma cells used in our studies express FIH-1 as assessed using RT-PCR. […] Expression of beta-actin, a housekeeping gene not under HIF regulation is not affected by pyruvate. […] (E) U373 cell were transfected with a green fluorescent protein (GFP) construct under the control of an HIF regulatory element (HRE) containing promoter and then cultured for eight hours in glucose-free medium under the indicated conditions. […] U251 cells stably transfected with a luciferase construct under the control of an HRE containing promoter were cultured for six hours in glucose free Krebs with the following conditions: 1=control, 2=1% oxygen, 3=pyruvate (2 mM), 4=OAA (2 mM), 5=Ethylpyruvate (2 mM), 6=Glucose (5.5 mM), 7=DMOG (0.5 mM), 8=Lactacystin-beta lactone ([…]).
FIG. 19: HIF-mediated gene expression is selectively reversed by ascorbate U251 cells stably expressing HRE-luciferase were cultured in glucose-free Krebs buffer with the indicated conditions for eight hours. Pyruvate, oxaloacetate, and DMOG were added at 1 mM each.
Effective gene expression by HIF not only involves HIF protein stabilization via inhibition of HPH enzymes but also HIF-1 binding to DNA, inhibition of FIH-1 activity, and gene transcription. The human gliomas that we utilized for most of our studies all express mRNA for FIH-1 (FIG. 18A). […] To directly assess activation of gene containing an HRE regulated promoter by the glucose metabolites pyruvate and oxaloacetate, we used U373 glioma cells transfected with an HRE-green fluorescent (HRE-GFP) construct that responds to HIF activation.

HRE containing promoter [2] = test: HRE-GFP reporter in U373 cells; assay type: cell-based, human; details: eight hours, glucose-free medium
Source text: as §1
Effective gene expression by HIF not only involves HIF protein stabilization via inhibition of HPH enzymes but also HIF-1 binding to DNA, inhibition of FIH-1 activity, and gene transcription. The human gliomas that we utilized for most of our studies all express mRNA for FIH-1 (FIG. 18A). […]

HIF-1a protein = test: HIF-1a levels in nuclear extracts of U87 glioma cells (western blot); assay type: cell-based, human; details: 150 μm DFO, four hours
Procedure: (A) U87 glioma cells cultured in DMEM were switched to Krebs buffer containing 5.5 mM glucose (Glc) and then evaluated for nuclear HIF-1a levels at various times by western blot analysis. (B) HIF-1a levels were measured after four hours incubation of cells in Krebs buffer containing the indicated glucose concentrations or with 5.5 mM 2-deoxyglucose (2-DG) substituted for glucose. (C) HIF-1a levels were measured in U87 cells cultured in glucose-free Krebs buffer following treatment for four hours under normoxia (21% oxygen) hypoxia (1% oxygen) or with 150 μm desferrioxamine (DFO). (D) Induction of HIF-1a by glucose was monitored in the presence of 50 μM IAA or 1 mM 4-CIN. […] Results are representative of experiments repeated at least three times.
Similar measurements were made in the presence of 50 μM IAA or in glucose-free Krebs buffer. […] HIF-1a induction by four hours treatment with 5.5 mM glucose-containing Krebs (Glc) is shown for comparison. (E) Digitonin-permeabilized cells were treated with 1% oxygen or Krebs containing either 5.5 mM glucose or 2 mM pyruvate in the presence of 50 μM IAA. Permeabilized cell in lanes 5 and 6 were treated with 3 mM NAD or NADH respectively in glucose free Krebs. Nuclear HIF-1a levels were determined four hours later. (F) HIF-1a levels were determined after four hour treatment of cells in glucose-free Krebs (lane 1) or 5.5 mM Glucose containing Krebs. […] (H) To measure the decay of the HIF-1a protein, HIF-1a measurements were made after four hour treatment under hypoxia (lane 1), four hours hypoxia followed by 30 minutes normoxia (lane 2), four hour treatment with 150 μM DFO (lane 3), four hours DFO followed by addition of 100 μM CHX for one hour (lane 4), four hours treatment with 2 mM pyruvate (lane 5), and four hours pyruvate followed by addition of 100 μM CHX for one hour (lane 6). (H) HIF-1a levels were determined in digitonin-permeabilized cells treated for four hour with Krebs containing no glucose (lane 1), 1 mM pyruvate (lane 2), or 1 mM pyruvate and 10 mM 2-OG (lane 3).
In order to resolve the biochemical mechanisms underlying this phenomenon, we studied the human glioma cell line U-87 under conditions of carefully defined culture media. Thus we studied these cells while culturing them in freshly prepared Krebs buffer, all components of which were known to us.
To precisely define the glucose metabolite mediating HIF-1a accumulation, we utilized pharmacological inhibitors of glycolysis as well as the direct addition of different glucose metabolites to cells (FIG. 4).

[3] = system: HPH homologues 1, 2 and 3; test: ^35S-pVHL pulldown assay, in vitro translated HPH homologues; assay type: biochemical, human; details: 2-OG analogs at 1 mM, 5 mM or 25 mM [2-OG], ascorbate at 2 mM
Procedure: After incubating the peptide with the HPHs and the indicated reagents, ^35S-pVHL was added followed by addition of streptavidin-coated beads to pull down the HIF-1a peptide. The reaction was pelleted, the pellet was washed and then solubilized for SDS-PAGE analysis followed by autoradiography to reveal the captured ^35S-pVHL. Using in vitro translated HPH homologues we first optimized assay conditions with respect to the required HPH substrates and co-factors. […] Conditions for other reagents were: ascorbate=2 mM, iron sulfate=250 μM, DTT=1 mM. […] Conditions: ascorbate=2 mM, 2-OG=2 mM, DTT=1 mM. […] Conditions: 2-OG=125 μM, iron sulfate=250 μM, DTT=1 mM. […] In all assays 5 μl (about 20 ng) of enzyme and 1 μg of peptide was utilized.
FIG. 13: In vitro effects of 2-OG analogs on recombinant HPH activity HPH activity was assessed via the ^35S-pVHL pulldown assay as in FIG. 11. Activity of in vitro translated HPH homologues was determined in the absence and presence of the 2-OG analogs N-oxalylglycine (NOG), pyruvate or OAA at 1 mM.
To directly evaluate the action of pyruvate and oxaloacetate on HPH activity (step D in FIG. 2) we utilized the commonly used ^35S-pVHL pulldown assay. This assay monitors the ability of HPH homologues to confer ^35S-pVHL binding activity onto a biotinylated 19mer peptide containing the key proline564 residue of the HIF-1a ODD (see FIG. 1). […]

HIF-1a = HIF-1a induction in digitonin-permeabilized human glioma cells (U87, U251); assay type: cell-based; details: 1 mM doses
Procedure: We determined the ability of each shown structure to induce HIF by exposing digitonin-permeabilized human glioma cells (U87, U251) to 1 mM doses.
At four hours, ATP levels were measured in cell extracts using the luciferase method.
In order to investigate the mechanism of action of the 2-oxoacid HIF inducers that we identified we first determined their effects upon cellular ATP levels. […] As shown in the scheme in FIG. 1, cellular levels of HIF-1a can be elevated by blockade of proteasomal activity, ubiquitinylation, or prolyl hydroxylation. Inhibition of the proteasome by lactacystin beta-lactone (Lbl) leads to accumulation of HIF-1a in its polyubiquitinylated form which generally appears as a smear of higher molecular weight species on western blots. […] Cellular accumulation and nuclear translocation of HIF-1a can also be studied via immunohistochemistry. For this purpose we utilized U251 cells which are more adherent to cell culture dishes that the U87 cells.

SMILES | HRE-luciferase expression (HRE containing promoter [1]) | HRE-GFP expression (HRE containing promoter [2]) | HIF-1a levels in glucose-free Krebs buffer (HIF-1a protein) | Inhibition of 2-OG catalyzed HPH activity [3] | Ability to induce HIF (HIF-1a accumulation), structure-activity (HIF-1a)
CC(=O)N(O)CCCCCNC(=O)CCC(=O)N(O)CCCCCNC(=O)CCC(=O)N(O)CCCCCN [DFO, desferrioxamine] | enhanced HRE-luciferase expression | activated HRE-GFP expression; also recorded: GFP (green fluorescence) was expressed | still upregulate HIF-1a protein in the absence of glucose |  | 
O=C(O)CNC(=O)C(=O)O [NOG, N-oxalylglycine] |  |  |  | inhibition by NOG is clearly evident | consistently enhanced HIF-1a levels
